Assay results from PubChem BioAssay AID1845208 (Molecular Pharmacology Branch, DTP, NCI, 2023).

Tested on: NCI-H196 SCLC complex tumor spheroid viability
Assay: Anticancer human tumor NCI-H196 cell line growth inhibition;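 further: spheroids exposed to compounds for 7 days before readout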;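 on viability, T/C: 100% = DMSO vehicle control wells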
Conditions: for IC50: curve of first compound; for viability, T/C: stronger effect = lower value
How it was run: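 Complex tumor spheroids combined malignant cells with endothelial cells and mesenchymal stem cells. DNA-damaging drugs and DNA repair inhibitors were tested alone and in combination, at half-log dilutions down from clinical Cmax (top 10 microM if Cmax unknown), 0.25% DMSO final.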

[1] = second compound 0.003 µM, first compound 0.0316 µM
[2] = second compound 0.003 µM, first compound 0.1 µM
[3] = second compound 0.003 µM, first compound 0.316 µM
[4] = second compound 0.003 µM, first compound 1 µM
[5] = second compound 0.003 µM, first compound 3.16 µM
[6] = second compound 0.003 µM, first compound 10 µM
[7] = second compound 0.00949 µM, first compound 0.0316 µM
[8] = second compound 0.00949 µM, first compound 0.1 µM
[9] = second compound 0.00949 µM, first compound 0.316 µM
[10] = second compound 0.00949 µM, first compound 1 µM
[11] = second compound 0.00949 µM, first compound 3.16 µM
[12] = second compound 0.00949 µM, first compound 10 µM
[13] = second compound 0.03 µM, first compound 0.0316 µM
[14] = second compound 0.03 µM, first compound 0.1 µM
[15] = second compound 0.03 µM, first compound 0.316 µM
[16] = second compound 0.03 µM, first compound 1 µM
[17] = second compound 0.03 µM, first compound 3.16 µM
[18] = second compound 0.03 µM, first compound 10 µM
[19] = second compound 0.0949 µM, first compound 0.0316 µM
[20] = second compound 0.0949 µM, first compound 0.1 µM
[21] = second compound 0.0949 µM, first compound 0.316 µM
[22] = second compound 0.0949 µM, first compound 1 µM
[23] = second compound 0.0949 µM, first compound 3.16 µM
[24] = second compound 0.0949 µM, first compound 10 µM
[25] = second compound 0.3 µM, first compound 0.0316 µM
[26] = second compound 0.3 µM, first compound 0.1 µM
[27] = second compound 0.3 µM, first compound 0.316 µM
[28] = second compound 0.3 µM, first compound 1 µM
[29] = second compound 0.3 µM, first compound 3.16 µM
[30] = second compound 0.3 µM, first compound 10 µM
[31] = second compound 30 pM, first compound 0.00949 µM
[32] = second compound 30 pM, first compound 0.03 µM
[33] = second compound 30 pM, first compound 0.0949 µM
[34] = second compound 30 pM, first compound 0.3 µM
[35] = second compound 30 pM, first compound 0.949 µM
[36] = second compound 30 pM, first compound 3 µM
[37] = second compound 94.9 pM, first compound 0.00949 µM
[38] = second compound 94.9 pM, first compound 0.03 µM
[39] = second compound 94.9 pM, first compound 0.0949 µM
[40] = second compound 94.9 pM, first compound 0.3 µM
[41] = second compound 94.9 pM, first compound 0.949 µM
[42] = second compound 94.9 pM, first compound 3 µM
[43] = second compound 0.0003 µM, first compound 0.00949 µM
[44] = second compound 0.0003 µM, first compound 0.03 µM
[45] = second compound 0.0003 µM, first compound 0.0949 µM
[46] = second compound 0.0003 µM, first compound 0.3 µM
[47] = second compound 0.0003 µM, first compound 0.949 µM
[48] = second compound 0.0003 µM, first compound 3 µM
[49] = second compound 0.000949 µM, first compound 0.00949 µM
[50] = second compound 0.000949 µM, first compound 0.03 µM
[51] = second compound 0.000949 µM, first compound 0.0949 µM
[52] = second compound 0.000949 µM, first compound 0.3 µM
[53] = second compound 0.000949 µM, first compound 0.949 µM
[54] = second compound 0.000949 µM, first compound 3 µM
[55] = second compound 0.003 µM, first compound 0.00949 µM
[56] = second compound 0.003 µM, first compound 0.03 µM
[57] = second compound 0.003 µM, first compound 0.0949 µM
[58] = second compound 0.003 µM, first compound 0.3 µM
[59] = second compound 0.003 µM, first compound 0.949 µM
[60] = second compound 0.003 µM, first compound 3 µM

CC(C)n1c(=O)n(C)c2cnc3cc(F)c(-c4ccc(OCCCN5CCCCC5)nc4)cc3c21 + CC[C@@]1(O)C(=O)OCc2c1cc1n(c2=O)Cc2cc3c(CN(C)C)c(O)ccc3nc2-1
IC50 (second compound 0.003 µM): > 10 µM | IC50 (second compound 0.00949 µM): > 10 µM | IC50 (second compound 0.03 µM): > 10 µM | IC50 (second compound 0.0949 µM): > 10 µM | IC50 (second compound 0.3 µM): > 10 µM | viability, T/C [1]: 102% | viability, T/C [2]: 106% | viability, T/C [3]: 105% | viability, T/C [4]: 107% | viability, T/C [5]: 110% | viability, T/C [6]: 113% | viability, T/C [7]: 105% | viability, T/C [8]: 107% | viability, T/C [9]: 109% | viability, T/C [10]: 112% | viability, T/C [11]: 110% | viability, T/C [12]: 103% | viability, T/C [13]: 102% | viability, T/C [14]: 102% | viability, T/C [15]: 104% | viability, T/C [16]: 101% | viability, T/C [17]: 95.9% | viability, T/C [18]: 87.9% | viability, T/C [19]: 116% | viability, T/C [20]: 113% | viability, T/C [21]: 104% | viability, T/C [22]: 86.5% | viability, T/C [23]: 74.9% | viability, T/C [24]: 71.9% | viability, T/C [25]: 110% | viability, T/C [26]: 107% | viability, T/C [27]: 108% | viability, T/C [28]: 88.1% | viability, T/C [29]: 78.5% | viability, T/C [30]: 71.4%

COc1ccc([C@@H](O)c2cc(-c3ncnc4cc(N5CCOCC5)ccc34)c(F)cc2Cl)nn1 + CC[C@@]1(O)C(=O)OCc2c1cc1n(c2=O)Cc2cc3c(CN(C)C)c(O)ccc3nc2-1
IC50 (second compound 0.003 µM): > 10 µM | IC50 (second compound 0.00949 µM): > 10 µM | IC50 (second compound 0.03 µM): 5.95 µM | IC50 (second compound 0.0949 µM): 2.63 µM | IC50 (second compound 0.3 µM): 2.61 µM | viability, T/C [1]: 100% | viability, T/C [2]: 99.6% | viability, T/C [3]: 90.8% | viability, T/C [4]: 82.3% | viability, T/C [5]: 69.2% | viability, T/C [6]: 55.2% | viability, T/C [7]: 98% | viability, T/C [8]: 97.1% | viability, T/C [9]: 95.5% | viability, T/C [10]: 88.9% | viability, T/C [11]: 65.7% | viability, T/C [12]: 52.8% | viability, T/C [13]: 93.5% | viability, T/C [14]: 92.3% | viability, T/C [15]: 88.1% | viability, T/C [16]: 72.5% | viability, T/C [17]: 58.6% | viability, T/C [18]: 43.5% | viability, T/C [19]: 99.8% | viability, T/C [20]: 102% | viability, T/C [21]: 93.5% | viability, T/C [22]: 70.2% | viability, T/C [23]: 46.2% | viability, T/C [24]: 39.5% | viability, T/C [25]: 107% | viability, T/C [26]: 104% | viability, T/C [27]: 88.8% | viability, T/C [28]: 71.9% | viability, T/C [29]: 43.1% | viability, T/C [30]: 37.1%

CNCc1ccc(-c2cc(-c3nc(-c4ccc(S(=O)(=O)C(C)C)cc4)cnc3N)on2)cc1 + COc1cc2c(cc1O)CCNC21CSC2c3c(OC(C)=O)c(C)c4c(c3C(COC1=O)N1C(O)C3Cc5cc(C)c(OC)c(O)c5C(C21)N3C)OCO4
IC50 (second compound 30 pM): > 3 µM | IC50 (second compound 94.9 pM): > 3 µM | IC50 (second compound 0.0003 µM): > 3 µM | IC50 (second compound 0.000949 µM): > 3 µM | IC50 (second compound 0.003 µM): < 0.00949 µM | viability, T/C [31]: 107% | viability, T/C [32]: 99% | viability, T/C [33]: 104% | viability, T/C [34]: 103% | viability, T/C [35]: 98% | viability, T/C [36]: 91.4% | viability, T/C [37]: 105% | viability, T/C [38]: 107% | viability, T/C [39]: 103% | viability, T/C [40]: 107% | viability, T/C [41]: 96.4% | viability, T/C [42]: 95.9% | viability, T/C [43]: 112% | viability, T/C [44]: 112% | viability, T/C [45]: 112% | viability, T/C [46]: 105% | viability, T/C [47]: 96.4% | viability, T/C [48]: 93.3% | viability, T/C [49]: 99.2% | viability, T/C [50]: 103% | viability, T/C [51]: 103% | viability, T/C [52]: 94.3% | viability, T/C [53]: 91.3% | viability, T/C [54]: 86.6% | viability, T/C [55]: 9.83% | viability, T/C [56]: 26.7% | viability, T/C [57]: 27.7% | viability, T/C [58]: 13.2% | viability, T/C [59]: 18.2% | viability, T/C [60]: 40.3%

Cn1ncnc1[C@H]1c2n[nH]c(=O)c3cc(F)cc(c23)N[C@@H]1c1ccc(F)cc1 + COc1cc2c(cc1O)CCNC21CSC2c3c(OC(C)=O)c(C)c4c(c3C(COC1=O)N1C(O)C3Cc5cc(C)c(OC)c(O)c5C(C21)N3C)OCO4
IC50 (second compound 30 pM): > 3 µM | IC50 (second compound 94.9 pM): > 3 µM | IC50 (second compound 0.0003 µM): > 3 µM | IC50 (second compound 0.000949 µM): > 3 µM | IC50 (second compound 0.003 µM): < 0.00949 µM | viability, T/C [31]: 100% | viability, T/C [32]: 99.3% | viability, T/C [33]: 98.6% | viability, T/C [34]: 97% | viability, T/C [35]: 94.6% | viability, T/C [36]: 92.4% | viability, T/C [37]: 99.3% | viability, T/C [38]: 99.3% | viability, T/C [39]: 98.8% | viability, T/C [40]: 98.6% | viability, T/C [41]: 92.7% | viability, T/C [42]: 99% | viability, T/C [43]: 102% | viability, T/C [44]: 97.5% | viability, T/C [45]: 101% | viability, T/C [46]: 93.5% | viability, T/C [47]: 92.2% | viability, T/C [48]: 87.7% | viability, T/C [49]: 92.3% | viability, T/C [50]: 85.1% | viability, T/C [51]: 82% | viability, T/C [52]: 92.4% | viability, T/C [53]: 87% | viability, T/C [54]: 71.2% | viability, T/C [55]: 6.21% | viability, T/C [56]: 7.26% | viability, T/C [57]: 4.58% | viability, T/C [58]: 3.69% | viability, T/C [59]: 2.82% | viability, T/C [60]: 1.01%

O=C(c1cc(Cc2n[nH]c(=O)c3ccccc23)ccc1F)N1CCN(C(=O)C2CC2)CC1 + COc1cc2c(cc1O)CCNC21CSC2c3c(OC(C)=O)c(C)c4c(c3C(COC1=O)N1C(O)C3Cc5cc(C)c(OC)c(O)c5C(C21)N3C)OCO4
IC50 (second compound 30 pM): > 30 µM | IC50 (second compound 94.9 pM): > 30 µM | IC50 (second compound 0.0003 µM): > 30 µM | IC50 (second compound 0.000949 µM): > 30 µM | IC50 (second compound 0.003 µM): < 0.0949 µM | viability, T/C [33]: 107% | viability, T/C [34]: 105% | viability, T/C [35]: 101% | viability, T/C [36]: 98.9% | viability, T/C (second compound 30 pM, first compound 9.49 µM): 85.5% | viability, T/C (second compound 30 pM, first compound 30 µM): 67.2% | viability, T/C [39]: 104% | viability, T/C [40]: 102% | viability, T/C [41]: 102% | viability, T/C [42]: 93.7% | viability, T/C (second compound 94.9 pM, first compound 9.49 µM): 91.5% | viability, T/C (second compound 94.9 pM, first compound 30 µM): 62.7% | viability, T/C [45]: 99.6% | viability, T/C [46]: 105% | viability, T/C [47]: 99.5% | viability, T/C [48]: 92% | viability, T/C (second compound 0.0003 µM, first compound 9.49 µM): 84.3% | viability, T/C (second compound 0.0003 µM, first compound 30 µM): 66% | viability, T/C [51]: 86.4% | viability, T/C [52]: 86.9% | viability, T/C [53]: 80.7% | viability, T/C [54]: 78.5% | viability, T/C (second compound 0.000949 µM, first compound 9.49 µM): 68.9% | viability, T/C (second compound 0.000949 µM, first compound 30 µM): 54.4% | viability, T/C [57]: 3.15% | viability, T/C [58]: 6.44% | viability, T/C [59]: 3.39% | viability, T/C [60]: 1.87% | viability, T/C (second compound 0.003 µM, first compound 9.49 µM): 0.89% | viability, T/C (second compound 0.003 µM, first compound 30 µM): 1.4%
